Patent publication US9789181B2, “PAN-DR binding polypeptides and uses thereof” (Epimmune Inc., priority 2009, dated 2017)
Where no end group is shown, it is not given here.

Tests used:
HLA DRB1 *0101 = HLA DRB1 *0101 (Homo sapiens, UniProt P01903+P01911, A100R/D57E/F55L/F60I/F76Y/I96L/L162R/M171V/P40L/Q125E/R42F/V115G/Y59C); assay: IC50nM to purified HLA | DRB1 *0101
Method: (§1) Table printed on a drawing sheet, FIG. 1 (contd.)
Head of the field: IC50nM to purified HLA | DRB1 *0101
(§2) First copying reader's note: Continued from an earlier sheet of FIG. 1; decimal commas as printed, analog names encode substituted residues and positions, and some values are printed in italics or bold and some SEQ ID NOs underlined without a legend on this sheet.
Where the first naming reader finds the target: head: IC50nM to purified HLA | DRB1 *0101

HLA DRB1 *0301 = HLA DRB1 *0301 (Homo sapiens, UniProt P01903+P01911, A100K/A102G/A103R/A169T/F55Y/I96L/K41T/L162R/M171V/P40S/Q125H/Q178H/Q39Y/R42S/S66N/T106N/T262R/W38E/Y61H); assay: IC50nM to purified HLA | DRB1 *0301
Method: as §1
Head of the field: IC50nM to purified HLA | DRB1 *0301
as §2
Where the first naming reader finds the target: head: IC50nM to purified HLA | DRB1 *0301

HLA DRB1 *0405 = HLA DRB1 *0405 (Homo sapiens, UniProt P01903+P01911, A100R/A169T/D86S/F76Y/I96L/K127E/L162R/M171V/N62H/P40V/Q125Y/R42H/S133A/S149N/S66Y/V115G/V209L/W38E); assay: IC50nM to purified HLA | DRB1 *0405
Method: as §1
Head of the field: IC50nM to purified HLA | DRB1 *0405
as §2
Where the first naming reader finds the target: head: IC50nM to purified HLA | DRB1 *0405

HLA DRB1 *0701 = HLA DRB1 *0701 (Homo sapiens, UniProt P01903+P01911, A100R/A102G/A103Q/D57E/D86V/E43K/F76Y/K127E/L162R/M171V/P40G/Q125H/Q99D/R33Q/R42Y/R54Q/S133A/S66F/T210M/V115G/Y107V/Y59L/Y89S); assay: IC50nM to purified HLA | DRB1 *0701
Method: as §1
Head of the field: IC50nM to purified HLA | DRB1 *0701
as §2
Where the first naming reader finds the target: head: IC50nM to purified HLA | DRB1 *0701

HLA DRB1 *0901 = HLA DRB1 *0901 (Homo sapiens, UniProt P01903+P01911, A100R/A103E/D57H/D86V/F55Y/F60I/F76Y/I96F/K127E/L162R/M171V/P40D/Q125H/Q99R/R33Q/R42F/S133A/S66N/T210M/V115G/W38K/Y107V/Y59G/Y89S); assay: IC50nM to purified HLA | DRB1 *0901
Method: as §1
Head of the field: IC50nM to purified HLA | DRB1 *0901
as §2
Where the first naming reader finds the target: head: IC50nM to purified HLA | DRB1 *0901

HLA DRB4 *0101 = HLA DRB4 *0101 (Homo sapiens, UniProt P01903+P13762, G164S); assay: IC50nM to purified HLA | DRB4 *0101
Method: as §1
Head of the field: IC50nM to purified HLA | DRB4 *0101
as §2
Where the first naming reader finds the target: head: IC50nM to purified HLA | DRB4 *0101

HLA DRB1 *1501 = HLA DRB1 *1501 (Homo sapiens, UniProt P01903+P01911); assay: IC50nM to purified HLA | DRB1 *1501
Method: as §1
Head of the field: IC50nM to purified HLA | DRB1 *1501
as §2
Where the first naming reader finds the target: head: IC50nM to purified HLA | DRB1 *1501

HLA DRB5 *0101 = HLA DRB5 *0101 (Homo sapiens, UniProt P01903+Q30154); assay: IC50nM to purified HLA | DRB5 *0101
Method: as §1
Head of the field: IC50nM to purified HLA | DRB5 *0101
as §2
Where the first naming reader finds the target: head: IC50nM to purified HLA | DRB5 *0101

HLA DRB1 *0404 = HLA DRB1 *0404 (Homo sapiens, UniProt P01903+P01911, A100R/A169T/F76Y/I96L/K127E/L162R/M171V/N62H/P40V/Q125Y/R42H/S133A/S149N/S66Y/V209L/W38E); assay: IC50nM to purified HLA | DRB1 *0404
Method: as §1
Head of the field: IC50nM to purified HLA | DRB1 *0404
as §2
Where the first naming reader finds the target: head: IC50nM to purified HLA | DRB1 *0404

HLA DRB1 *1101 = HLA DRB1 *1101 (Homo sapiens, UniProt P01903+P01911, A100R/A169T/A87E/I96F/K41T/L162R/M171V/P40S/Q125H/Q178H/Q39Y/Q99D/R42S/S66Y/T262R/V115G/W38E); assay: IC50nM to purified HLA | DRB1 *1101
Method: as §1
Head of the field: IC50nM to purified HLA | DRB1 *1101
as §2
Where the first naming reader finds the target: head: IC50nM to purified HLA | DRB1 *1101

HLA DRB1 *0401 = HLA DRB1 *0401 (Homo sapiens, UniProt P01903+P01911, A100K/A169T/F76Y/I96L/K127E/L162R/M171V/N62H/P40V/Q125Y/R42H/S133A/S149N/S66Y/V115G/V209L/W38E); assay: IC50nM to purified HLA | DRB1 *0401
Method: as §1
Head of the field: IC50nM to purified HLA | DRB1 *0401
as §2
Where the first naming reader finds the target: head: IC50nM to purified HLA | DRB1 *0401

HLA DRB1 *1302 = HLA DRB1 *1302 (Homo sapiens, UniProt P01903+P01911, A100E/A169T/K41T/L162R/M171V/P40S/Q125H/Q178H/Q39Y/Q99D/R42S/S66N/T262R/V115G/W38E/Y61H); assay: IC50nM to purified HLA | DRB1 *1302
Method: as §1
Head of the field: IC50nM to purified HLA | DRB1 *1302
as §2
Where the first naming reader finds the target: head: IC50nM to purified HLA | DRB1 *1302

HLA DRB1 *0802 = HLA DRB1 *0802 (Homo sapiens, UniProt P01903+P01911, A100R/A103L/A169T/F76Y/H45Y/I96F/K41T/L162R/M171V/P40S/Q125H/Q178H/Q39Y/Q99D/R218S/R42G/S66Y/V115G/W38E); assay: IC50nM to purified HLA | DRB1 *0802
Method: as §1
Head of the field: IC50nM to purified HLA | DRB1 *0802
as §2
Where the first naming reader finds the target: head: IC50nM to purified HLA | DRB1 *0802

Chain of HLA DRB1 *0301 (P01903 26-254 limits assumed, other chains not shown): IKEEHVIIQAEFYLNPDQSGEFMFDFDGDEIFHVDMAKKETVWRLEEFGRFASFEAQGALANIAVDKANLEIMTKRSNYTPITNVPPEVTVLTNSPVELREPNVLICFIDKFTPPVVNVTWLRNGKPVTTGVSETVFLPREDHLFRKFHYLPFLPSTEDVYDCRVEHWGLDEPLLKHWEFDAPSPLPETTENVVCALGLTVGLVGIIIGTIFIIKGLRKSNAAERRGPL
Chain of HLA DRB1 *1302 (P01903 26-254 limits assumed, other chains not shown): as above
Chain of HLA DRB1 *1101 (P01903 26-254 limits assumed, other chains not shown): as above
Chain of HLA DRB4 *0101 (P01903 26-254 limits assumed): as the sequence (P01903 26-254 limits assumed, other chains not shown) above
Chain of HLA DRB4 *0101 (P13762 whole entry G164S): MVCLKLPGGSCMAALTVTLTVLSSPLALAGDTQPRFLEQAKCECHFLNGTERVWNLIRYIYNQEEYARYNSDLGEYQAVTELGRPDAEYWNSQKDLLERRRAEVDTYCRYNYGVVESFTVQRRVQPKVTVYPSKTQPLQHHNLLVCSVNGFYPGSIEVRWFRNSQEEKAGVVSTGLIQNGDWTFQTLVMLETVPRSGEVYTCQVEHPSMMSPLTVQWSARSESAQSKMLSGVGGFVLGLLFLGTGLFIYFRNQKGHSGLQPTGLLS

IC50 (HLA DRB1 *0101) [nM]	IC50 (HLA DRB1 *0301) [nM]	IC50 (HLA DRB1 *0405) [nM]	IC50 (HLA DRB1 *0701) [nM]	IC50 (HLA DRB1 *0901) [nM]	IC50 (HLA DRB4 *0101) [nM]	IC50 (HLA DRB1 *1501) [nM]	IC50 (HLA DRB5 *0101) [nM]	IC50 (HLA DRB1 *0404) [nM]	IC50 (HLA DRB1 *1101) [nM]	IC50 (HLA DRB1 *0401) [nM]	IC50 (HLA DRB1 *1302) [nM]	IC50 (HLA DRB1 *0802) [nM]	Sequence
7.3			109	75	109	17		4.5		2.7	65		AAAIFVAANTLHAAA [SEQ ID NO: 72]
5.7	301		95		346	3.2			19		1950	9.4	AAAIFVAAYTLHAAA [SEQ ID NO: 70]
4.7	254	12	52	41	111					1.6		12	AAANFVAAFTLHAAA [SEQ ID NO: 53]
6.1			84		1110	114	43			3.4	44		AAANFVAANTLHAAA [SEQ ID NO: 54]
				109	6320	296				9.7	269		AAANFVAANTLKADA [SEQ ID NO: 58]
	1740		107		964		34	11	78				AAANFVAANTLKAEA [SEQ ID NO: 62]
	1530			44		12		15	100	6.3	819	22	AAANFVAAYTLKADA [SEQ ID NO: 56]
		7.7		31	97			4.4		2.7		13	AAAQFVAAFTLHAAA [SEQ ID NO: 66]

The next lines start with the sequence.

Sequence	IC50 (HLA DRB1 *0101) [nM]	IC50 (HLA DRB1 *0301) [nM]	IC50 (HLA DRB1 *0405) [nM]	IC50 (HLA DRB1 *0701) [nM]	IC50 (HLA DRB1 *0901) [nM]	IC50 (HLA DRB4 *0101) [nM]	IC50 (HLA DRB1 *1501) [nM]	IC50 (HLA DRB5 *0101) [nM]	IC50 (HLA DRB1 *0404) [nM]	IC50 (HLA DRB1 *1101) [nM]	IC50 (HLA DRB1 *0401) [nM]	IC50 (HLA DRB1 *1302) [nM]	IC50 (HLA DRB1 *0802) [nM]
AAAIFVAAFTLHAAA [SEQ ID NO: 71]	12	442	14	206	80	117	9.7	21	2.7	12			
AAANFVAAWTLKADA [SEQ ID NO: 55]	7.6			52				24	9.7	41	5.5		35
AAANFVAAWTLKAEA [SEQ ID NO: 59]	1.8	723	3.8			221	31	15				1040	19
AAANFVAAYTLKAEA [SEQ ID NO: 60]		1070			43	718	11		6.1		13	590	21
AAAQFVAAWTLKAAA [SEQ ID NO: 63]	5.1	271	21			259	17	5.2		12	1.6		
AAAQFVAAYTLHAAA [SEQ ID NO: 65]	4.2	153	22		21	428	3.6	24		17	2.2	700	5.1
